One data set concerns Human thrombocytes. Briefly: Inhibition of the binding of 3H-BIBU 52 to human thrombocytes (platelets). The note with it: human thrombocytes in plasma; 3H-BIBU 52 5 nM; 20 minutes, ambient temperature; read-out: 3H-BIBU 52-binding test IC50. Here is the method: 1. Inhibition of the binding of ^3 H-BIBU 52 to Human thrombocytes […] Case 5/1093-FL) and various concentrations of the test substance. The free and bound ligand are separated by centrifuging and quantitatively measured by scintillation counting. From the measurements obtained the inhibition of ^3 H-BIBU 52 binding caused by the test substance is determined. In order to do this, donor blood is taken from an anticubital vein and anti-coagulated with trisodium citrate (final concentration 13 mM). The blood is centrifuged for 10 minutes at 170×g and the supernatant platelet-rich plasma (PRP) is removed. The remaining blood is centrifuged vigorously once more in order to recover plasma. The PRP is diluted with autologous plasma 1:10. 750 μl are incubated for 20 minutes at ambient temperature with 50 μl of physiological saline solution, 100 μl of test substance solution, 50 μl of ^14 C-sucrose (3700 Bq) and 50 μl of ^3 H-BIBU 52 (final concentration: 5 nM). In order to measure the non specific binding, 5 μl of BIBU 52 (final concentration 30 μM) are used instead of the test substance. […] The pellet is dissolved in 500 μl of 0.2N NaOH, 450 μl are mixed with 2 ml of scintallator and 25 μl of 5N HCl, and measured. The residual plasma remaining in the pellet is determined from the ^14 C-content, and the bound ligand is determined from the ^3 H-measurement. After substracting the non specific binding, the pellet activity is plotted against the concentration of the test substance and the concentration for 50% inhibition of binding is determined. A. Inhibition of the binding of ^3 H-BIBU 52 to human platelets […] The free and bound ligand is separated by centrifugation and determined quantitatively by scintillation counting. The inhibition of ^3 H-BIBU 52 binding by the test substance is determined from the measurements. For this purpose, donor blood is taken from an antecubital vein and anticoagulated with trisodium citrate (final concentration 13 mM). The blood is centrifuged at 170×g for 10 minutes, and the supernatant platelet-rich plasma (PRP) is removed. The remaining blood is thoroughly centrifuged once again to obtain plasma. The PRP is diluted 1:10 with autologous plasma. […] are incubated with […] of physiological saline, […] of test substance solution, […] of ^14 C-sucrose (3700 Bq) and 50 ml of ^3 H-BIBU 52 (final concentration: 5 nM) at room temperature for 20 minutes. To measure the nonspecific binding, 5 ml of BIBU 52 (final concentration: […]) are used in place of the test substance. […] The pellet is dissolved in 500 ml of 0.2N NaOH, and 450 ml are mixed with 2 ml of scintillator and 25 ml of 5N HCl and measured. The remaining plasma still present in the pellet is determined from the ^14 C content, and the bound ligand is determined from the ^3 H measurement. After subtraction of the nonspecific binding, the activity in the pellet is plotted against the concentration of test substance, and the concentration for 50% inhibition of binding is found.

Data set [1] deals with Thrombocyte aggregation (collagen-induced). Briefly: Collagen-induced platelet aggregation in platelet-rich plasma (Born and Cross method). Format: cell-based. The settings on record: Homo sapiens, 10 min, platelet-rich plasma of healthy volunteers, 10 minutes incubation at 37° C., compounds of general formula I, read-out: Inhibition of platelet aggregation EC50. Here is the method: 2. Antithrombotic activity Thrombocyte aggregation is measured using the Born and Cross method (J. Physiol. 170: 397 (1964)) in platelet-rich plasma taken from healthy volunteers. To inhibit coagulation the blood is mixed with 3.14% sodium citrate in a ratio by volume of 1:10. Collagen-induced aggregation The pattern of the decrease in optical density of the platelet suspension is photometrically measured and recorded after the addition of the aggregation-triggering substance. The rate of aggregation is determined from the angle of inclination of the density curve. The point on the curve where there is maximum light transmittance is used to calculate the optical density. The amount of collagen used is as small as possible but sufficient to produce an irreversible reaction curve. Standard commercial collagen produced by Hormonchemie of Munich is used. Before the addition of the collagen the plasma is incubated for 10 minutes with the test substance at 37° C. From the measurements obtained, an EC50 is determined graphically, indicating a 50% change in the optical density in terms of the inhibition of aggregation. B. Antithrombotic effect Platelet aggregation is measured by the method of Born and Cross (J. Physiol. 170, 397 (1964)) in platelet-rich plasma from healthy test subjects. For anticoagulation, sodium citrate 3.14% is added to the blood in the ratio 1:10 by volume. Collagen-induced aggregation The course of the decrease in optical density of the platelet suspension is measured and recorded photometrically after addition of the aggregation-inducing substance. The rate of aggregation is established from the angle of inclination of the density plot. The point on the plot at which the transmission of light is a maximum is used to calculate the optical density. The amount of collagen is chosen to be as small as possible but sufficient for the reaction plot to have an irreversible course. The collagen commercially obtainable from Hormonchemie, Munich, is used. Before the addition of collagen the plasma is in each case incubated with the substance at 37° C. for 10 minutes. An EC50 which relates to a 50% change in the optical density in the sense of inhibition of aggregation is determined graphically from the measured results.

The next data set has as its system mice. The experiment in a line: Tolerance after intravenous administration in mice. The class given is in vivo. The note with it: mice (three), 30 mg/kg.
Data set [2] has as its system collagen-induced thrombocyte aggregation. The experiment in a line: Inhibition of collagen-induced thrombocyte aggregation ex vivo after oral administration. The class given is in vivo. The note with it: Rhesus monkeys; oral administration of 1 mg/kg.

Here are results for 3 compounds from patent publication US5827849A, “Cyclic dericatives, pharmaceutical compositions containing these compounds and processes for preparing them” (Karl Thomae GmbH, priority 1993, dated 1998).

Where a name gives a salt, the structure may show the parent alone.

One may read the IC50 as the concentration needed to halve the response being measured. For orientation: EC50 means the concentration needed to bring the measured effect to its halfway point. Consider `CN1CCc2ccc(N3CCN(c4ccc(CCC(=O)O)cc4)C3=O)cc2CC1` [8(1), 1-[4-(2-carboxyethyl)phenyl]-3-(3-methyl-2,3,4,5-tetrahydro-1H-3-benzazepin-7-yl)-imidazolidin-2-one-hydrochloride×1.5 water], for which the concentration for half-maximal inhibition (IC50) in the data set with Human thrombocytes is 36 nM. In addition, the EC50 in data set [1] was 150 nM. Also, the “deaths / tolerance after intravenous administration” value in the data set with mice is “none of the three test animals died”.
Turning to `CC(C)COC(=O)CCc1ccc(N2CCN(c3ccc4c(c3)CCNC4)C2=O)cc1` [Example 7, 1-[4-[2-(Isobutyloxycarbonyl)ethyl]phenyl]-3-(1,2,3,4-tetrahydroisoquinolin-6-yl)-imidazolidin-2-one-hydrochloride×1 water], in data set [2], the “duration of inhibition of collagen-induced thrombocyte aggregation ex vivo” value is given as “more than 5 hours”.
Turning to `CN1CCc2ccc(N3CCN([C@H]4CC[C@H](CCC(=O)O)CC4)C3=O)cc2CC1.Cl` [Example 19, 1-[trans-4-(2-Carboxyethyl)cyclohexyl]-3-(3-methyl-2,3,4,5-tetrahydro-1H-3-benzazepin-7-yl)-imidazolidin-2-one-hydrochloride], the IC50 in the data set on Human thrombocytes came out at 59 nM. Besides, in data set [2], the “duration of inhibition of collagen-induced thrombocyte aggregation ex vivo” value is given as “more than 8 hours”. In addition, in data set [1], the EC50 turned out to be 230 nM. In the data set with mice, the “deaths / tolerance after intravenous administration” value is on record as “none of the three test animals died”.
